Data published in ChEMBL document CHEMBL4229572, “VU6007477, a Novel M1 PAM Based on a Pyrrolo[2,3-b]pyridine Carboxamide Core Devoid of Cholinergic Adverse Events” (ACS Med Chem Lett, 2018).

What was measured:
Mus musculus = assay: Cholinergic toxicity in C57BL/6J mouse assessed as induction of seizure activity at 100 mg/kg, ip measured within 30 mins; format: organism-based; conditions: in vivo, 0.5 h
[1] = Protein binding in rat brain assessed as unbound fraction; format: ADME, tissue-based
[2] = Ratio of unbound brain to plasma concentration in cannulated Sprague-Dawley rat at 0.2 mg/kg, iv administered via jugular vein as cassette dose measured after 0.25 hrs by LC-MS/MS analysis; format: ADME, organism-based; conditions: Sprague-Dawley, brain and plasma, read-out: K(p,uu,brain)
[3] = Total brain to plasma partition coefficient, Kp in C57BL/6J mouse at 100 mg/kg, ip after 1 hr by LC-MS/MS analysis; format: ADME, organism-based; conditions: brain and plasma
[4] = molecular target: T1, Muscarinic acetylcholine receptor M1 (Homo sapiens, UniProt P11229); assay: Agonist activity at human M1 receptor expressed in CHO cells assessed as increase in calcium mobilization measured after 2.5 mins by Fluo-4-AM dye based assay; format: functional, cell-based
T1 sequence (P11229 whole entry): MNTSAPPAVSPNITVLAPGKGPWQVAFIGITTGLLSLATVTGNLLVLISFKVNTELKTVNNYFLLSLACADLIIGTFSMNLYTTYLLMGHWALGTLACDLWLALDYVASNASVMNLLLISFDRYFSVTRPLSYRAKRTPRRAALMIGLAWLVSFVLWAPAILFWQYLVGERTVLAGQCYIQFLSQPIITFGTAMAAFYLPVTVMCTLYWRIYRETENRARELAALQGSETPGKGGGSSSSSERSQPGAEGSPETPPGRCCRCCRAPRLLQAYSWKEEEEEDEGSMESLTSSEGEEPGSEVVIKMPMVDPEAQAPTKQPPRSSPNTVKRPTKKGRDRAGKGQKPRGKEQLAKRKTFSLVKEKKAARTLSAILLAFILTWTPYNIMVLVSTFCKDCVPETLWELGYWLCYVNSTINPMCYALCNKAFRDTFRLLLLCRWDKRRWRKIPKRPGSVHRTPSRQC

[5] = Drug level in C57BL/6J mouse brain at 100 mg/kg, ip measured after 1 hr; format: ADME, organism-based; conditions: read-out: Drug uptake
[6] = molecular target: T1, Muscarinic acetylcholine receptor M1; assay: (§1) Positive allosteric modulation of human M1 receptor expressed in CHO cells assessed as increase in acetylcholine-induced calcium mobilization pretreated for 2.5 mins followed by acetylcholine addition and measured after 1 min by Fluo-4-AM dye based assay; format: functional, cell-based
[7] = molecular target: T2, Muscarinic acetylcholine receptor M1 (Homo sapiens) (UniProt P11229); assay: as §1; format: functional, cell-based
T2 sequence (whole entry): T1 sequence (P11229 whole entry)

[8] = molecular target: Muscarinic acetylcholine receptor M3 (Homo sapiens, UniProt P20309); assay: Positive allosteric modulation of human M3 receptor expressed in CHO cells assessed as increase in acetylcholine-induced calcium mobilization pretreated for 2.5 mins followed by acetylcholine addition and measured after 1 min by Fluo-4-AM dye based assay; format: functional, cell-based
[9] = molecular target: T3, Muscarinic acetylcholine receptor M2 (Homo sapiens, UniProt P08172); assay: Positive allosteric modulation of human M2 receptor expressed in CHO cells co-expressing Gqi5 assessed as increase in acetylcholine-induced calcium mobilization pretreated for 2.5 mins followed by acetylcholine addition and measured after 1 min by Fluo-4-AM dye based assay; format: functional, cell-based
T3 sequence (P08172 whole entry): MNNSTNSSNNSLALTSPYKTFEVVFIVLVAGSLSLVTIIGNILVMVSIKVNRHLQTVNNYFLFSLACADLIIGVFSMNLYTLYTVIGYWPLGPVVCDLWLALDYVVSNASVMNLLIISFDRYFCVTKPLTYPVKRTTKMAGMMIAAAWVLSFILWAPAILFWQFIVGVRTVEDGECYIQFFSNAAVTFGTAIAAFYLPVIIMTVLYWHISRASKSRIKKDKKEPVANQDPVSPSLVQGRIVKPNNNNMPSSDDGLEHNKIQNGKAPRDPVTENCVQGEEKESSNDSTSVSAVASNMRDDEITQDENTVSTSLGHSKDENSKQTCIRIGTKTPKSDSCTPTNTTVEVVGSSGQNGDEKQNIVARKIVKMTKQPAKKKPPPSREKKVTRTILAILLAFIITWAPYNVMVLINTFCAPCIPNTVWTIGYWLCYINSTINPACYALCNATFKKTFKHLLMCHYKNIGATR

[10] = Protein binding in rat plasma assessed as unbound fraction at 5 uL measured after 4 hrs by LC-MS/MS based equilibrium dialysis method; format: ADME, cell-free
[11] = molecular target: T4, Muscarinic acetylcholine receptor M4 (Homo sapiens, UniProt P08173); assay: Positive allosteric modulation of human M4 receptor expressed in CHO cells co-expressing Gqi5 assessed as increase in acetylcholine-induced calcium mobilization pretreated for 2.5 mins followed by acetylcholine addition and measured after 1 min by Fluo-4-AM dye based assay; format: functional, cell-based
T4 sequence (P08173 whole entry): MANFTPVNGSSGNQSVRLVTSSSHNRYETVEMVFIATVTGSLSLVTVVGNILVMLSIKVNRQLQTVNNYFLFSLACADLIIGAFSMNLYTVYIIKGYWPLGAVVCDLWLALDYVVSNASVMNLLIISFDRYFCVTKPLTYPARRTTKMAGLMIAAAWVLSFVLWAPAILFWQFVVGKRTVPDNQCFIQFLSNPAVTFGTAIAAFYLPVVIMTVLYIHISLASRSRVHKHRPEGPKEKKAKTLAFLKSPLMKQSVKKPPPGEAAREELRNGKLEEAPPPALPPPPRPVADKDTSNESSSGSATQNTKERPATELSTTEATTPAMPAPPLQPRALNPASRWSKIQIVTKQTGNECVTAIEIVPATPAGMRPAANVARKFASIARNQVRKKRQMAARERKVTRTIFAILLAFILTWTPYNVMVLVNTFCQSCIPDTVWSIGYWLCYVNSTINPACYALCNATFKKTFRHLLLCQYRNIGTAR

[12] = Ratio of unbound brain to plasma concentration in C57BL/6J mouse at 100 mg/kg, ip after 1 hr by LC-MS/MS analysis; format: ADME, organism-based; conditions: brain and plasma, read-out: K(p,uu,brain)
[13] = Protein binding in human plasma assessed as unbound fraction at 5 uL measured after 4 hrs by LC-MS/MS based equilibrium dialysis method; format: ADME, cell-free

Muscarinic acetylcholine receptor M3, sequence (P20309 whole entry): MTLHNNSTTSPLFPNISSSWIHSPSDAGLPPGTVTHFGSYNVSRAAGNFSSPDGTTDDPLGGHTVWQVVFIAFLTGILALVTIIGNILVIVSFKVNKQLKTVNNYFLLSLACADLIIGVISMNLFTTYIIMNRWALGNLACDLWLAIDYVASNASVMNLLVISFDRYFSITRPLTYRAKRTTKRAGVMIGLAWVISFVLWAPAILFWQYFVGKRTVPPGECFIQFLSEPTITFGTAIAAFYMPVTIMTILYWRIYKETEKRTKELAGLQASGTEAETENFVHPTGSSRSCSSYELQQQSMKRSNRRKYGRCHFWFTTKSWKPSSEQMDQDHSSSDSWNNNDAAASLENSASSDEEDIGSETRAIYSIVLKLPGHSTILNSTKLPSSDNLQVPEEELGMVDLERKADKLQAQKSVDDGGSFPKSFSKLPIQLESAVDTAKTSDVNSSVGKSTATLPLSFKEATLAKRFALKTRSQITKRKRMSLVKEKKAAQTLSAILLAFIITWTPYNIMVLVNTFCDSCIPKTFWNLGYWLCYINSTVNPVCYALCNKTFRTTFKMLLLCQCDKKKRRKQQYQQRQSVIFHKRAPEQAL

fraction unbound [1]: 0.08 | Kp uu at 0.25 h [2]: 0.32 | Kp at 1 h [3]: 0.16 | EC50 [4]: 324 nM | concentration at 1 h [5]: 7 µM | EC50 [6]: 320 nM | %max [7]: 84% | EC50 [8]: > 30000 nM | EC50 [9]: > 30000 nM | fraction unbound at 4 h, 5 uL [10]: 0.06 | EC50 [11]: > 30000 nM | Kp uu at 1 h [12]: 0.18 | fraction unbound at 4 h, 5 uL [13]: 0.04
Compound: Cn1cc(-c2ccc(Cc3cc(C(=O)NC4CCOCC4)nc4c3ccn4C)cn2)cn1
Activity (Mus musculus): Non-Toxic
